The MIC is the least concentration at which growth counts as inhibited.

The values below come from patent US4276285A, “Combinations of penicillanic acid 1,1-dioxide with 7-(D-2-[4-ethylpiperazin-2,3-dione-1-carboxamido]-2-[4-hydroxyphenyl]ace tamido)-3-([1-methyl-5-tetrazolyl]thiomethyl)-3-desacetoxymethylcephalosp oranic acid” (priority 1979, dated 1981).

For test [1], the system named is resistant Escherichia coli. In words: MIC alone and in combination against 30 strains of resistant Escherichia coli. The format is cell-based. The protocol:
The manner in which the compounds of the formula I increase the effectiveness of the compound of formula XXII and the pharmaceutically-acceptable salts thereof can be appreciated by reference to experiments in which the MIC of the compound of the formula XXII alone, and the compound of the formula I wherein R^1 is hydrogen alone, are measured. These MIC's are then compared with the MIC values obtained with a combination of the compound of formula XXII and the compound of the formula I, wherein R^1 is hydrogen. […] The MIC values of combinations are measured using the method described by Barry and Sabath in "Manual of Clinical Microbiology", edited by Lenette, Spaulding and Truant, 2nd edition, 1974, American Society of Microbiology.
The minimum inhibitory concentrations (MIC's) of penicillanic acid 1,1-dioxide (PA 1,1-dioxide) alone and 7-(D-2-[4-ethylpiperazine-2,3-dione-1-carboxamido]-2-[4-hydroxyphenyl]acetamido)-3-([1-methyl-5-tetrazolyl]thiomethyl)-3-desacetoxymethylcephalosporanic acid (T-1551) alone, against 30 strains of resistant Escherichia coli, were measured. These MIC's were then compared with the MIC values obtained with a combination of the two compounds. The results were as follows:
The MIC's were measured using the method recommended by the International Collaborative Study on Antibiotic Sensitivity Testing (Ericcson and Sherris, Acta. Pathologica et Microbiologica Scandivav, Supp. 217, Section B, 64-68 [1971]), which employed brain heart infusion agar and the inocular replicating device. Overnight growth tubes were diluted 10-fold for use as the standard inoculum. Twelve two-fold dilutions of the test compound were employed with initial concentration of the test drug being 200 mcg/ml. Single colonies were disregarded when reading plates after 18 hours at 37° C. […] The MIC's of combinations were measured using the method described by Barry and Sabath in "Manual of Clinical Microbiology", edited by Lenette, Spaulding and Truant, 2nd edition, 1974, American Society for Microbiology.

For test [2], the system named is microbial beta-lactamases. Nature of the test: Inhibition of microbial beta-lactamases. The format is biochemical. The note with it: result in words.

Take `CCN1CCN(C(=O)N[C@@H](C(=O)N[C@@H]2C(=O)N3C(C(=O)O)=C(CSc4nnnn4C)CS[C@H]23)c2ccc(O)cc2)C(=O)C1=O` [Example T-1551, 7-(D-2-[4-ethylpiperazine-2,3-dione-1-carboxamido]-2-[4-hydroxyphenyl]acetamido)-3-([1-methyl-5-tetrazolyl]thiomethyl)-3-desacetoxymethylcephalosporanic acid]: the MIC in test [1] (alone, BHI agar, 18 hours at 37° C., read-out: Mode MIC of T-1551 alone) was 100 mg/L. For the same compound, in test [1] (in combination with PA 1,1-Dioxide (1.56)), the “Mode MIC's of T-1551 & PA 1,1-Dioxide in Combination: T-1551” value is 1.56.
As to `CC1(C)[C@H](C(=O)O)N2C(=O)C[C@H]2S1(=O)=O` [Penicillanic Acid 1,1-Dioxide], the “Mode MIC's of T-1551 & PA 1,1-Dioxide in Combination: PA 1,1-Dioxide” value in test [1] (in combination with T-1551 (1.56)) worked out at 1.56. The “inhibition of microbial beta-lactamases” value in test [2] was “potent inhibitors of microbial beta-lactamases”.
